Measurements: paper PMC9895061 (Signal Transduction and Targeted Therapy, 2023)
Where two headings read alike, the source gives them in different places.

Columns and labels:
HCT116 cells [1] = assay: ROS measurement by DCFH-DA staining and flow cytometry, HCT116; assay type: cell-based, human; settings: 2 μM, 24 h
Method: (§1) […]. DCFH-DA was deacetylated by intracellular esterase to a non-fluorescent compound, which was later oxidized by intracellular ROS to the fluorescent DCF. DCF fluorescence was detected using flow cytometer and data was analyzed using FlowJo software (version 10.4).
(§2) g, h ROS measurement of SW620 (g) and HCT116 (h) cells with compounds treatment. […].

NCM460 cells [2] = assay: ROS measurement by DCFH-DA staining and flow cytometry, NCM460; assay type: cell-based, human; settings: 2 μM, 24 h
Method: as §1
b ROS measurement of NCM460 cells with compounds treatment. […].

PRDX2 = molecular target: T1, PRDX2 (Homo sapiens, UniProt P32119); assay: Trx-TrxR-NADPH coupling peroxiredoxin activity assay, PRDX2; assay type: biochemical
T1 sequence (P32119 1-198): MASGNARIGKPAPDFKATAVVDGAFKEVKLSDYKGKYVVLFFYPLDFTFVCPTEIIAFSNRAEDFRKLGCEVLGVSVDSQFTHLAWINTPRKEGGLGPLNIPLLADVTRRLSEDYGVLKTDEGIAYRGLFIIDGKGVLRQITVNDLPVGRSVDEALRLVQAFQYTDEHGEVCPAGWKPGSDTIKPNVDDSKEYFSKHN

nude mice = assay: Acute toxicity test (percent survival within 2 weeks); assay type: in vivo; settings: for Survival number, female (n=4) / Survival number, male (n=4) / Survival rate, female (n=4) / Survival rate, male (n=4): within 2 weeks
Method: For acute toxicity test, Nude mice were randomly divided into five groups (four female mice and four male mice in each group). […] The percent survival within 2 weeks was recorded in Supplementary Table 2 and survival curve.

SW620-gNS xenografts = assay: SW620-gNS xenograft tumor growth in nude mice; settings: 2 mg/kg intraperitoneally, 5 days per week for 2 weeks
PRDX4 = molecular target: T2, PRDX4 (Homo sapiens, UniProt Q13162); assay: Trx-TrxR-NADPH coupling peroxiredoxin activity assay, PRDX4; assay type: biochemical; settings: for inhibition of the peroxidase activity of PRDX4 (in words): recombinant PRDX4
T2 sequence (Q13162 38-271): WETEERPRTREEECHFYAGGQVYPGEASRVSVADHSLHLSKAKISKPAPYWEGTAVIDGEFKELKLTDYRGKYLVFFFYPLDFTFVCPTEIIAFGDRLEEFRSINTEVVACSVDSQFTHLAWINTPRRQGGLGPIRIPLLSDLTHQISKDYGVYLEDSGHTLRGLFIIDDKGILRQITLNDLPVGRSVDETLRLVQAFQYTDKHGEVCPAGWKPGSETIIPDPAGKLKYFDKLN

SW620 cells [3] = assay: CCK-8 proliferation assay, SW620; assay type: cell-based; settings: Homo sapiens, SW-620; 24 h treatment
Method: (§3) SW620 or HCT116 cells were seeded into 96-well plate overnight at 5000 cells per well or 4000 cells per well respectively. […] Cell numbers were assessed using the CCK-8 reagent at OD 450. The IC50 values were calculated by fitting the data points with the dose-response function in GraphPad.

SW620 cells [4] = assay: ROS measurement by DCFH-DA staining and flow cytometry, SW620; assay type: cell-based, human; settings: 2 μM, 24 h
Method: as §1, §2

HCT116 cells [5] = assay: CCK-8 proliferation assay, HCT116; assay type: cell-based; settings: Homo sapiens, HCT-116; 24 h treatment
Method: as §3

[6] = Body weight of xenograft-bearing nude mice; settings: 2 mg/kg, day 12, average of gNS and gPRDX1 groups
NCM460 cells [7] = assay: Proliferation IC50 in NCM460; assay type: cell-based; settings: Homo sapiens, NCM460, 24 h, read-out: IC50 of proliferation, NCM460
gPRDX1 SW620 cells = assay: Proliferation IC50 in PRDX1 knockdown (gPRDX1) SW620 cells; assay type: cell-based; settings: Homo sapiens, SW-620, 24 h, read-out: IC50 against the proliferation of PRDX1 knockdown (gPRDX1) SW620 cells
Method: To generate PRDX1 knockdown cell lines, gRNA targeting […] was cloned into the vector pHBLV-U6-gRNA-EF1-CAS9-PURO from HanBio. The gRNA, psPAX2, and pMD2·G plasmids were mixed and co-transfected into HEK293T cells using Lipofectamine 2000 (Thermo Fisher Scientific). Medium with lentiviruses was collected and filtered through 0.45 μm filters at 48 h after transfection. Lentiviruses was used to infect the indicated cells with 8 μg/mL polybrene (Sigma-Aldrich) for 2 days. The infected cells were selected in medium containing 2 μg/mL puromycin (Sigma-Aldrich) for 3 days, and PRDX1 protein expression level were examined by western blot.
as §3

PRDX6 = molecular target: T3, PRDX6 (Homo sapiens, UniProt P30041); assay: Trx-TrxR-NADPH coupling peroxiredoxin activity assay, PRDX6; assay type: biochemical
T3 sequence (P30041 1-224): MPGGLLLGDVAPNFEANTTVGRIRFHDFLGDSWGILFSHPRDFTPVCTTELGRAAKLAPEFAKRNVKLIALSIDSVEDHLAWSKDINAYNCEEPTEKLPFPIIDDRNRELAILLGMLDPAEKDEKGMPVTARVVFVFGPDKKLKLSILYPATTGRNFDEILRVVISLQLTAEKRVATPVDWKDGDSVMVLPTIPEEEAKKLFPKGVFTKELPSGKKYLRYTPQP
Method: The assay was conducted in 96-well plates as previously described.[47] […] Then, the mixture solution containing 0.3 µM yeast Trx, 0.15 µM yeast TrxR and 200 µM NADPH was added to assay wells. The reaction was initiated with 100 µM hydrogen peroxide (H2O2) and detected with Thermo Multiskan FC at 340 nm. For PRDX1-6, the work concentration is 0.6 µM, 1.5 µM, 1 µM, 3 µM, 0.5 µM, 10 µM respectively. The initial reaction’s slope of assay wells containing mixture solution and H2O2 without PRDXs and compounds (S100%) were considered as 100 % inhibition of PRDXs’ peroxidase activity. The initial reaction’s slope of assay wells containing mixture solution, H2O2 and PRDXs without compounds (S0%) were considered as 0% inhibition of PRDXs’ peroxidase activity. […] The inhibition rate (%) was calculated from the following equations: 100 – (Scompound − S100%)/(S0% − S100%) × 100. […] Data were analyzed using GraphPad (version 8.0).

PRDX5 = molecular target: T4, PRDX5 (Homo sapiens, UniProt P30044); assay: Trx-TrxR-NADPH coupling peroxiredoxin activity assay, PRDX5; assay type: biochemical
T4 sequence (P30044 53-214): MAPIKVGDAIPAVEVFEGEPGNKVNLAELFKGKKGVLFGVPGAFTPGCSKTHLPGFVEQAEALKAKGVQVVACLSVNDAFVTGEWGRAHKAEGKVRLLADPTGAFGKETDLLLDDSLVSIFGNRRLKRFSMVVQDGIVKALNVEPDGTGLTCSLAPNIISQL

Structure (SMILES) | ROS-positive rate, HCT116 (HCT116 cells [1]) | intracellular ROS positive rate, NCM460 (NCM460 cells [2]) | Survival number, female (n=4) (nude mice; 10 mg/kg intraperitoneally) | Survival number, male (n=4) (nude mice; 10 mg/kg intraperitoneally) | Survival rate, female (n=4) (nude mice; 10 mg/kg intraperitoneally) | Survival rate, male (n=4) (nude mice; 10 mg/kg intraperitoneally) | Survival number, female (n=4) (nude mice; 20 mg/kg intraperitoneally) | Survival number, male (n=4) (nude mice; 20 mg/kg intraperitoneally) | Survival rate, female (n=4) (nude mice; 20 mg/kg intraperitoneally) | Survival rate, male (n=4) (nude mice; 20 mg/kg intraperitoneally) | tumor progression of SW620-gNS xenografts (in words) (SW620-gNS xenografts) | inhibition of the peroxidase activity of PRDX4 (in words) (PRDX4) | IC50 (SW620 cells [3]) | ROS-positive rate, SW620 (SW620 cells [4]) | IC50 (HCT116 cells [5]) | body weight loss as compared to DMSO control [6] | IC50 (NCM460 cells [7]) | IC50 (gPRDX1 SW620 cells) | further results
COC(=O)[C@H](C)NC(=O)N[C@]1(C)CC[C@]2(C)CC[C@]3(C)C4=CC=C5C(=CC(=O)C(O)=C5C)[C@]4(C)CC[C@@]3(C)[C@@H]2C1 [19-048, Methyl (((2R,4aS,6aS,12bR,14aS,14bR)-10-hydroxy-2,4a,6a,9,12b,14a-hexamethyl-11-oxo-1,2,3,4,4a,5,6,6a,11,12b,13,14,14a,14b-tetradecahydropicen-2-yl)carbamoyl)-L-alaninate] | 91.7% | 29.13% | 4 | 4 | 100% | 100% | 0 | 4 | 0% | 100% | suppressed the overall tumor progression | no obvious inhibition | 528 nM | 74.77% | 816 nM | 7.3% | 2230 nM | 431 ± 9.14 nM | inhibition of the peroxidase activity of PRDX2 (in words) (PRDX2; recombinant PRDX2): no obvious inhibition; IC50 (PRDX2; recombinant PRDX2, 1.5 h incubation, mean ± SEM, triplicate, read-out: IC50 against the peroxidase activity of PRDX2): > 100000 nM; survival, all mice (male and female) (nude mice; 10 mg/kg, within two weeks): 100%; IC50 (PRDX4; recombinant PRDX4, 1.5 h incubation, read-out: IC50 against the peroxidase activity of PRDX4): > 100000 nM; IC50 (PRDX6): > 100000 nM; inhibition of the peroxidase activity of PRDX6 (in words) (PRDX6; recombinant PRDX6): no obvious inhibition; inhibition of the peroxidase activity of PRDX5 (in words) (PRDX5; recombinant PRDX5): no obvious inhibition; IC50 (PRDX5; recombinant PRDX5, 1.5 h incubation, mean ± SEM, triplicate, read-out: IC50 against the peroxidase activity of PRDX5): > 100000 nM
CC1=C(O)C(=O)C=C2C1=CC=C1[C@@]2(C)CC[C@@]2(C)[C@@H]3C[C@](C)(C(=O)O)CC[C@]3(C)CC[C@]12C [Celastrol, reference compound] | 88.4% | 26.5% | 0 | 1 | 0% | 25% | 0 | 0 | 0% | 0% | suppressed the overall tumor progression | no obvious inhibitory effect | 690 nM | 61.07% | 894 nM | 11.2% | 2660 nM | 494 ± 10.8 nM | IC50 (PRDX2): 3790 ± 260 nM; survival, all mice (male and female), in words (nude mice; 20 mg/kg, within two weeks): All the mice died; IC50 (PRDX4): > 100000 nM; IC50 (PRDX6; recombinant PRDX6, 1.5 h incubation, mean ± SEM, triplicate, read-out: IC50 against the peroxidase activity of PRDX6): 27300 ± 390 nM; IC50 (PRDX5): 2300 ± 130 nM
